Source: paper PMC9380671, “Development of spiro-3-indolin-2-one containing compounds of antiproliferative and anti-SARS-CoV-2 properties” (Scientific Reports, 2022)
Like-named read-outs stand apart in the source and are kept apart here.

What was measured:
[1] = system: HCT116 (colon) cancer cell line; test: MTT antiproliferation, HCT116; type: cell-based, human; details: for IC50: Homo sapiens, HCT-116, 72 h, read-out: IC50 (µM) ± SEM HCT116; for SI (selectivity index) HCT116: IC50 of RPE1/IC50 of cancer cell line
Experimental: (§1) Antiproliferation properties of the targeted agents were investigated by the standard MTT technique against diverse human cancer cell lines [MCF7 (breast), HCT116 (colon), A431 (skin squamous) and PaCa2 (pancreatic)][67] (Table 1, Supplementary Figs. S48‒S51).
(§2) Cells were seeded at concentration of 30000 cells per well in fresh complete growth medium in 96-well tissue culture microtiter plates for 24 h. […] 0.5% DMSO was used as negative control. Triplicate wells were prepared for each individual dose. After 72 h of incubation, medium was aspirated, 40 μl MTT salt (2.5 mg ml^-1) was added to each well and incubated for further 4 h at 37 °C. To stop the reaction and dissolve the formed crystals, 150 μl of 10% sodium dodecyl sulfate (SDS) in deionized water was added to each well and incubated overnight at 37 °C.
(§3) Data were collected as mean values for experiments performed in triplicates for each individual dose which had been measured by MTT assay. […] The cell surviving fraction was calculated according to the following equation.
(§4) Surviving fraction = OpticaldensityO.D.oftreatedcellsO.D.ofcontrolcells
(§5) Statistical calculations for determination of the mean and standard error mean values were determined by SPSS 16 software.

[2] = system: SARS-CoV-2 (hCoV-19/Egypt/NRC-03/2020); test: Vero-E6 cell viral infection model, anti-SARS-CoV-2 IC50 (CPE, crystal violet); type: cell-based; details: for IC50: Severe acute respiratory syndrome coronavirus 2, Vero C1008; for SI = CC50/IC50: Vero-E6, SARS-CoV-2
[3] = system: A431 (skin squamous) cancer cell line; test: MTT antiproliferation, A431; type: cell-based, human; details: for IC50: Homo sapiens; for SI (selectivity index) A431: IC50 of RPE1/IC50 of cancer cell line
Experimental: as §1, §2, §3, §4, §5

[4] = system: PaCa2 (pancreatic) cancer cell line; test: MTT antiproliferation, PaCa-2; type: cell-based, human; details: for IC50: Homo sapiens, PaCa-2, 72 h, read-out: IC50 (µM) ± SEM PaCa-2; for SI (selectivity index) PaCa-2: IC50 of RPE1/IC50 of cancer cell line
Experimental: as §1
Cells were suspended in DMEM medium for MCF7, A431, PaCa-2 and McCoy’s 5A for HCT116 in addition to 1% antibiotic–antimycotic mixture (10000 μg ml^-1 potassium penicillin, 10000 μg ml^-1 streptomycin sulfate and 25 μg ml^-1 amphotericin B), 10% fetal bovine serum and 1% L-glutamine at 37 °C, under 5% CO2 and 95% humidity. Cells were seeded at concentration of 30000 cells per well in fresh complete growth medium in 96-well tissue culture microtiter plates for 24 h. Media was aspirated, fresh complete medium was added and cells were incubated with different concentrations of the tested compound to give a final concentration of [50, 25, 12.5 and 6.25 μM “in addition to 3.125, 1.56 and 0.78 μM in case of high potent analogues”). 0.5% DMSO was used as negative control. Triplicate wells were prepared for each individual dose. After 72 h of incubation, medium was aspirated, 40 μl MTT salt (2.5 mg ml^-1) was added to each well and incubated for further 4 h at 37 °C. To stop the reaction and dissolve the formed crystals, 150 μl of 10% sodium dodecyl sulfate (SDS) in deionized water was added to each well and incubated overnight at 37 °C. The absorbance was then measured at 570 nm and a reference wavelength of 595 nm.
as §3, §4
(§6) Statistical calculations for determination of the mean and standard error mean values were determined by SPSS 16 software. The observed anti-proliferative properties are presented in Table 1 (Supplementary Figs. S48‒S52).

AChE = AChE (Homo sapiens, UniProt P22303); test: AChE inhibition (DTNB, acetylthiocholine); type: biochemical; details: for IC50: read-out: AChE (IC50, μM) ± SD
Experimental: All compounds were dissolved in MeOH.

[5] = system: RPE1 (normal human immortalized retinal pigment epithelial cell line); test: MTT toxicity towards normal cells, RPE1; type: cell-based; details: RPE-1, read-out: IC50 (µM) ± SEM RPE1
Experimental: The safety of the synthesized agents against non-cancer/normal RPE1 (retinal pigment epithelium) cell line was assessed (Table 1, Supplementary Fig. S52). The SI (selectivity index) for the tested compounds against RPE1 cell line confirms the safety towards non-cancer cells. […] Compound 6d and 6h which are also of high anti-PaCa2 show remarkable SI values (SI = > 3.8, > 3.6, respectively).
The agents synthesized were also tested against RPE1 (normal human immortalized retinal pigment epithelial cell line) cell (in DMEM-F12 medium) to determine the toxicity/selectivity towards normal cells relative to the cancer cell lines utilized.
as §6

BChE = BChE (Homo sapiens, UniProt P06276); test: BChE inhibition (DTNB, butyrylthiocholine iodide)
[6] = MTT cytotoxicity assay (CC50); type: cell-based; details: African green monkey, VERO-E6 cells
Experimental: The cytotoxic activity of the compounds was tested in VERO-E6 cells by using the 3-(4,5-dimethylthiazol-2-yl)-2,5-diphenyltetrazolium bromide (MTT) method with minor modifications. Briefly, the cells were seeded in 96 well-plates […] at a density of 3 x 10^5 cell/ml and incubated for 24 h at 37 °C in 5% CO2. After 24 h, cells were treated with various concentrated of the tested compounds in triplicates. 24 h later, the supernatant was discarded and cell monolayers were washed with sterile 1x phosphate buffer saline (PBS) 3 times and MTT solution (20 µl of 5 mg/ml) was added to each well and incubated at 37 °C for 4 h followed by medium aspiration. In each well, the formed formazan crystals were dissolved with 200 µl of acidified isopropanol (0.04 M HCl in absolute isopropanol = 0.073 ml HCl in 50 ml isopropanol). Eventually, the absorbance was measured at λmax 570 nm using the Anthos Zenyth 200rt plate reader (Anthos Labtec Instruments, Heerhugowaard, Netherlands). The cytotoxicity of various concentrations compared to the untreated cells was determined using nonlinear regression analysis by plotting log inhibitor versus normalized response.^12^-14

[7] = system: MCF7 (breast) cancer cell line; test: MTT antiproliferation, MCF7; type: cell-based, human; details: for IC50: Homo sapiens, MCF7, 72 h, read-out: IC50 (µM) ± SEM MCF7; for SI (selectivity index) MCF7: IC50 of RPE1/IC50 of cancer cell line
Experimental: as §1, §2, §3, §4, §5

VEGFR-2 = target: T1, VEGFR-2 (Homo sapiens, UniProt P35968); type: cell-based; details: western blot, MCF7, compound at its MTT IC50; for VEGFR-2 RQ (relative quantification): control RQ 3.2634
T1 construct: Western blot technique was considered for EGFR and VEGFR-2 properties determination; endogenous in cells; host or cells: MCF7 (breast cancer cell line)
Description: (§7) The western blot technique was applied utilizing the IC50 observed for each respective agent synthesized during MTT assay[85],[86]. Consideration of multi-targeted inhibitory properties investigation is based in the fact that cancer initiation and proliferation sometimes utilizes many receptors or signaling pathways.
(§8) Western blot technique was considered for EGFR and VEGFR-2 properties determination utilizing the IC50 observed of each respective agent synthesized during MTT assay against MCF7 (breast) cancer cell line. All the studies were conducted according to the manufacturer’s instruction.^10,^11

EGFR = target: T2, EGFR (Homo sapiens, UniProt P00533); type: cell-based; details: western blot, MCF7, compound at its MTT IC50; for EGFR RQ (relative quantification): control RQ 3.4461
T2 construct: Western blot technique was considered for EGFR and VEGFR-2 properties determination; endogenous in cells; host or cells: MCF7 (breast cancer cell line)
Description: as §7, §8

[8] = Vero-E6, 72 h, reduction of virus-induced CPE, read-out: IC50 (µM) SARS-CoV-2
[9] = log of observed IC50 in μM, read-out: Observed log(IC50, μM) (SARS-CoV-2) (converted)
[10] = A-431, 72 h, read-out: IC50 (µM) ± SEM A431
[11] = A-431, read-out: Observed log(IC50, μM) (A431) (converted)

T2 sequence (P00533 25-1210): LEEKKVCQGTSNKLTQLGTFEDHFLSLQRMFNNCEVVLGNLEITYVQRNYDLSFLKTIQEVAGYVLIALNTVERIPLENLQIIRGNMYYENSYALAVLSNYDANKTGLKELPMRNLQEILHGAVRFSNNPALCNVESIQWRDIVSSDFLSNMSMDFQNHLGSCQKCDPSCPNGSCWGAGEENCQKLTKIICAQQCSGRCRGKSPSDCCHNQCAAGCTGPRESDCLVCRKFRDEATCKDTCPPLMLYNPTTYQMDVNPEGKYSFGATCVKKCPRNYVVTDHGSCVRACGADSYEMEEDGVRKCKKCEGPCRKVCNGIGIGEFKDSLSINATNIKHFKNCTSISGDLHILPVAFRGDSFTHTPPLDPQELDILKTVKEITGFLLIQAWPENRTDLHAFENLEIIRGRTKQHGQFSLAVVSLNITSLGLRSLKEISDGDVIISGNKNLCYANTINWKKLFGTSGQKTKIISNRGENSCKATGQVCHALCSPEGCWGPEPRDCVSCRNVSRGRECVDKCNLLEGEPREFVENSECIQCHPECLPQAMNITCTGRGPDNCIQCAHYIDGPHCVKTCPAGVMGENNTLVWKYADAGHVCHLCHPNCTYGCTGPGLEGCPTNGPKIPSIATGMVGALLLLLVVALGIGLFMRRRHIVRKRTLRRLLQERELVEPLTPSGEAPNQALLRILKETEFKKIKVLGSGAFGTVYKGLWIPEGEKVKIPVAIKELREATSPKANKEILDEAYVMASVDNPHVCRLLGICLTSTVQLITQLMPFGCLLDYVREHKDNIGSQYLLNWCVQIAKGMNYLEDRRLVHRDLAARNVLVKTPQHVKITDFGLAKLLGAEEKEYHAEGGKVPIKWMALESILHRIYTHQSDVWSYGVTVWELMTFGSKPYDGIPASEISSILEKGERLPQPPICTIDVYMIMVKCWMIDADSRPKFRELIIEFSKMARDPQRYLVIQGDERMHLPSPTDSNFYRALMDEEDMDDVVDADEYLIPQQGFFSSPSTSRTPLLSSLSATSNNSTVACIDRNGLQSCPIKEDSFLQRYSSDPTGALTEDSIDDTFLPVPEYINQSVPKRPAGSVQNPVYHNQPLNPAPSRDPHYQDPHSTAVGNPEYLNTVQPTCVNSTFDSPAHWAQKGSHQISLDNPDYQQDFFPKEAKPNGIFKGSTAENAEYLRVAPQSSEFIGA
Chain of BChE (P06276 29-602, species assumed): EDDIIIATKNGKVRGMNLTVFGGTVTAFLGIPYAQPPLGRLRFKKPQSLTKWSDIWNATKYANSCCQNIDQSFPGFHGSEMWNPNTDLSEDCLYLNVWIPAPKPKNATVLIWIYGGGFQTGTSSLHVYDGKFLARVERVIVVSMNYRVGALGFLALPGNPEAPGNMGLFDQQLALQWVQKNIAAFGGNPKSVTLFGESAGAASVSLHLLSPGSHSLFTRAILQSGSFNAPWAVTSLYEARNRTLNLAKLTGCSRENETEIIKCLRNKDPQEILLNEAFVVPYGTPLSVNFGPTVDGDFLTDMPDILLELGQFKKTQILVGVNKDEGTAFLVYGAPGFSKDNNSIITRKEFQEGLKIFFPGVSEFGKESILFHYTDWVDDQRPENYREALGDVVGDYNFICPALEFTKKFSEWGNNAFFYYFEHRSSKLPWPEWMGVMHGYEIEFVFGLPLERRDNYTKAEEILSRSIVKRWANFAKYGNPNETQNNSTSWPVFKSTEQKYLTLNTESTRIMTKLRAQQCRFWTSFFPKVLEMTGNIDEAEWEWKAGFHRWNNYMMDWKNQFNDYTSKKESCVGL
Chain of AChE (P22303 32-614): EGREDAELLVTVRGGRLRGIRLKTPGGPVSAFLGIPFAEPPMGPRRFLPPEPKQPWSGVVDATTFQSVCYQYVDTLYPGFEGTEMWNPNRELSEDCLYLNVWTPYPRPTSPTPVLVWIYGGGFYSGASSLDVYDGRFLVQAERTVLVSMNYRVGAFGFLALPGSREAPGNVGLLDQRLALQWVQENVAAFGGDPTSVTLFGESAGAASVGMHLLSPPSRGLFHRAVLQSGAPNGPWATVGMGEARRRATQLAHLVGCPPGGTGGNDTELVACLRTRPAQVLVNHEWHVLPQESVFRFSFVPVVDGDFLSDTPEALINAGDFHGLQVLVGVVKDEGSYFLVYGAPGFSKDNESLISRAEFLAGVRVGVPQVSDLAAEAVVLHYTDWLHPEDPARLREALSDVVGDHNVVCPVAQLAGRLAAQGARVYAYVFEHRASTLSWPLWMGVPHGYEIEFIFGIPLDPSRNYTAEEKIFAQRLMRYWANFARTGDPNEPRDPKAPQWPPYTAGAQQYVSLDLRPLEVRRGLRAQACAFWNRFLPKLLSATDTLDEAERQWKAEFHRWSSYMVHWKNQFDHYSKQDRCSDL
T1 sequence (P35968 20-1356): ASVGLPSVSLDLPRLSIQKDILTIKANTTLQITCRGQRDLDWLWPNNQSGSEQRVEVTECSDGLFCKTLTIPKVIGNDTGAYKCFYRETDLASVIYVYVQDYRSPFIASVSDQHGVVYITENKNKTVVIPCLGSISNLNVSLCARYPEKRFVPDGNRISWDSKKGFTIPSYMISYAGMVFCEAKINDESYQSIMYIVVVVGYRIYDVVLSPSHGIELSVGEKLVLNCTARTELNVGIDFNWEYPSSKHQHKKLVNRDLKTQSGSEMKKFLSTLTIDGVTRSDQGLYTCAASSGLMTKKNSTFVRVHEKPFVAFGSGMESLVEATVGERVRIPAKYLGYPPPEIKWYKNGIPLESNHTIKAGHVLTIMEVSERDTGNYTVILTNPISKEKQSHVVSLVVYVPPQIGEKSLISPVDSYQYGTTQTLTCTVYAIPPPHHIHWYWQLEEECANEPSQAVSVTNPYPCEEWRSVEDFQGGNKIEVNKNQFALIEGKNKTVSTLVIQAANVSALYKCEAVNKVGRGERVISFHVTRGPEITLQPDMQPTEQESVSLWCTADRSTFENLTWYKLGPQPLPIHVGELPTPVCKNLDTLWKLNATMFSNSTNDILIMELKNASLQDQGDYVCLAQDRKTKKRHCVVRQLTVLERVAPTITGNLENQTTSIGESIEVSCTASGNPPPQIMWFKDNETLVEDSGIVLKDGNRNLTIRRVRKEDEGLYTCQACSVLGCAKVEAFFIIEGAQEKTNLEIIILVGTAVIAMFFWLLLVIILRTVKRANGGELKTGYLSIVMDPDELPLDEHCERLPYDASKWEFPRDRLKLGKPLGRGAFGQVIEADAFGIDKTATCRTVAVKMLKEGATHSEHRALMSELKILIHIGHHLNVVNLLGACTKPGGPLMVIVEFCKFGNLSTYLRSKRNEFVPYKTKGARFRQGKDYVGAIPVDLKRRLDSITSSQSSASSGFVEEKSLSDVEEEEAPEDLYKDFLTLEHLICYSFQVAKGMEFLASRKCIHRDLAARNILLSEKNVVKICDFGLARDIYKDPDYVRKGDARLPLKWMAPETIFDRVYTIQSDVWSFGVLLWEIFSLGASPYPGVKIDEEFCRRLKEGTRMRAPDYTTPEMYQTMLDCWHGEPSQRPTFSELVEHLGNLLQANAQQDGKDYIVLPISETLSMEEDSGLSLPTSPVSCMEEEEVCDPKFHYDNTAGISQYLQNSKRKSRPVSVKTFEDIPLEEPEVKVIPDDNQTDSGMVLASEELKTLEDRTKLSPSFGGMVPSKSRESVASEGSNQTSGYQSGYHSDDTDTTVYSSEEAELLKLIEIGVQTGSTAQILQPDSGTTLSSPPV

| SMILES | IC50 [1] [µM] | SI (selectivity index) HCT116 [1] | IC50 [2, 8] [µM] | IC50 [2, 9] [µM] | SI = CC50/IC50 [2] | IC50 [3, 10] [µM] | IC50 [3, 11] [µM] | SI (selectivity index) A431 [3] | IC50 [4] [µM] | SI (selectivity index) PaCa-2 [4] | SI = IC50 (AChE)/IC50 (BChE) (AChE) | IC50 (AChE) [µM] | IC50 [5] [µM] | IC50 (BChE) [µM] | CC50 at 24 h [6] [µM] | IC50 [7] [µM] | SI (selectivity index) MCF7 [7] | VEGFR-2 % Inhibition (VEGFR-2) [%] | VEGFR-2 RQ (relative quantification) (VEGFR-2) | EGFR % Inhibition (EGFR) [%] | also measured |
| --- | --- | --- | --- | --- | --- | --- | --- | --- | --- | --- | --- | --- | --- | --- | --- | --- | --- | --- | --- | --- | --- |
| CN1CC(c2ccc(F)cc2)C2(CN(S(C)(=O)=O)C/C(=C\c3ccc(F)cc3)C2=O)C12C(=O)Nc1ccc(Cl)cc12 (centres unmarked) [Compound 6f, (E)-5-Chloro-5″-(4-fluorobenzylidene)-4′-(4-fluorophenyl)-1′-methyl-1″-(methylsulfonyl)dispiro[indoline-3,2′-pyrrolidine-3′,3″-piperidine]-2,4″-dione] | 5.43 ± 0.46 | 3.3 | 7.67 | 7.67 | 8.8 | 4.76 ± 0.37 | 4.76 | 3.7 | 11.7 ± 0.94 | 1.5 | 1.0 | 3.89 ± 1.66 | 17.8 ± 0.87 | 3.75 ± 0.71 | 67.8 | 5 ± 0.39 | 3.6 | 64.7 | 1.153 | 69.3 | times the potency of chloroquine against SARS-CoV-2 ([2]; ratio of IC50 values): about 3.3 times; times the potency of hydroxychloroquine against SARS-CoV-2 ([2]; ratio of IC50 values): ~4.8 times; EGFR RQ (relative quantification) (EGFR): 1.058 |
| CCS(=O)(=O)N1C/C(=C\c2ccc(F)cc2)C(=O)C2(C1)C(c1ccc(F)cc1)CN(C)C21C(=O)Nc2ccccc21 (centres unmarked) [Compound 6g, (E)-1″-(Ethylsulfonyl)-5″-(4-fluorobenzylidene)-4′-(4-fluorophenyl)-1′-methyldispiro[indoline-3,2′-pyrrolidine-3′,3″-piperidine]-2,4″-dione] | 4.94 ± 0.25 | 6.8 | 16.9 | 16.9 | 4.7 | 6.17 ± 0.44 | 6.17 | 5.4 | 28.4 ± 0.85 | 1.2 | 0.8 | 2.46 ± 0.99 | 33.4 ± 1.22 | 3.22 ± 0.92 | 79.2 | 10.3 ± 0.86 | 3.2 | 63.7 | 1.186 | 62.8 | EGFR RQ (relative quantification) (EGFR): 1.28 |
| CCS(=O)(=O)N1C/C(=C\c2ccc(F)cc2)C(=O)C2(C1)C(c1ccc(F)cc1)CN(C)C21C(=O)Nc2ccc(Cl)cc21 (centres unmarked) [Compound 6h, (E)-5-Chloro-1″-(ethylsulfonyl)-5″-(4-fluorobenzylidene)-4′-(4-fluorophenyl)-1′-methyldispiro[indoline-3,2′-pyrrolidine-3′,3″-piperidine]-2,4″-dione] | 4.6 ± 0.18 | > 10.9 | 7.69 | 7.69 | 34.1 | 6.04 ± 0.26 | 6.04 | > 8.3 | 14 ± 0.73 | > 3.6 | 0.8 | 6.3 ± 0.97 | > 50 | 8.07 ± 1.47 | 262 | 4.69 ± 0.44 | > 10.7 | 66.2 | 1.104 | 67.2 | EGFR RQ (relative quantification) (EGFR): 1.13 |
| CN1CC(c2ccc(Cl)cc2)C2(CN(S(C)(=O)=O)C/C(=C\c3ccc(Cl)cc3)C2=O)C12C(=O)Nc1ccccc12 (centres unmarked) [Compound 6i, (E)-5″-(4-Chlorobenzylidene)-4′-(4-chlorophenyl)-1′-methyl-1″-(methylsulfonyl)dispiro[indoline-3,2′-pyrrolidine-3′,3″-piperidine]-2,4″-dione] | 5.47 ± 0.32 | 2.7 | 113 | 113 | 2.1 | 4.4 ± 0.49 | 4.4 | 3.4 | 9.04 ± 0.62 | 1.6 | 1.3 | 18.2 ± 1.48 | 14.8 ± 1.57 | 13.6 ± 2.12 | 235 | 5.01 ± 0.29 | 2.9 | 64.2 | 1.1684 | 68.7 | EGFR RQ (relative quantification) (EGFR): 1.077 |
| CN1CC(c2ccc(Cl)cc2)C2(CN(S(C)(=O)=O)C/C(=C\c3ccc(Cl)cc3)C2=O)C12C(=O)Nc1ccc(Cl)cc12 (centres unmarked) [Compound 6j, (E)-5-Chloro-5″-(4-chlorobenzylidene)-4′-(4-chlorophenyl)-1′-methyl-1″-(methylsulfonyl)dispiro[indoline-3,2′-pyrrolidine-3′,3″-piperidine]-2,4″-dione] | 4.72 ± 0.25 | 2.6 | 27.1 | 27.1 | 7.4 | 4.08 ± 0.21 | 4.08 | 3.1 | 8.83 ± 0.51 | 1.4 | 1.9 | 42.8 ± 4.61 | 12.5 ± 0.86 | 22.3 ± 3.33 | 201 | 4.51 ± 0.39 | 2.8 | 57.9 | 1.3745 | 63.3 | EGFR RQ (relative quantification) (EGFR): 1.2634 |
